Assay results published in patent US7056491B2, “Monoterpenes and sesquiterpenes as chemotherapeutic and radiation sensitizers and immunomodulators” (Wisconsin Alumni Research Foundation, priority 2000, dated 2006).

How the values were obtained:
[1] = system: PC3 prostate cancer cells; assay: Clonogenic survival assay, POH with or without radiation, PC3; format: cell-based, human
Description: FIGS. 2–14 illustrates additional work with other monoterpenes and cell lines. […] Subconfluent cultures prostate cancer cell line PC3 were treated with 0.1–0.5 mM of POH for 72 hours and subsequently to increasing doses of radiation from 0.1 Gy to 8.5 Gy. Control cells were treated with the indicated doses of radiation alone. The cells were harvested and an optimum number of cells were allowed to growth for 14 days. The resulting colonies were stained and counted. Each graphed point represents mean values ± SE values of triplicate dishes.
(§1) Table 1 summarizing data from different cell lines treated with radiation, radiation plus POH, and POH alone. Subconfluent cultures of human glioma (T98G, M059K, U251), prostate (DU145, PC3), colon (DLD-1, HT29) and pancreatic (MIAPACA) cancer cell lines were treated with 0.1–0.5 mM of POH for 72 hours and subsequently to increasing doses of radiation from 0.1 Gy to 8.5 Gy. Control cells were treated with medium alone. The cells were harvested and an optimum number of cells were allowed to grow for 14 days. The resulting colonies were stained and counted. Each graphed point represents mean values ± SE values of triplicate dishes. Percentage survival was determined as the ratio of plating efficiencies for each irradiated group to that of the unirradiated control.

[2] = system: glioma, prostate, melanoma and colon cell lines; assay: Cell cycle analysis by propidium iodide flow cytometry; format: cell-based; conditions: 1 mM POH 72 hours
Description: The indicated glioma (T98G, U251, U87, C6, U353 and MO59K), prostate (DU145 and PC3) melanoma (Mel5 and M21) and colon (DLD-1, HT29) cell lines were treated with medium or with 1 mM of POH dissolved in medium for 72 hours. The cells were harvested, fixed stained with propidium iodide and analyzed by flow cytometry to estimate the various phases of the cell cycle. Each point on the graph represents mean values of duplicate dishes.

[3] = system: U251 cells; assay: Clonogenic survival assay, POH with or without radiation, U251; format: cell-based, human
Description: Subconfluent cultures of human glioma cell line U251 were treated with 0.1–0.5 mM of POH for 72 hours and subsequently to increasing doses of radiation from 0.1 Gy to 8.5 Gy. Control cells were treated with the indicated doses of radiation alone. The cells were harvested and an optimum number of cells were allowed to grow for 14 days. The resulting colonies were stained and counted. Each graphed point represents mean values ± SE values of triplicate dishes.
as §1

[4] = system: 21–26 kD proteins, including small GTP-binding proteins; conditions: dose dependent, distal to HMG-CoA reductase; cited from earlier work
[5] = system: pancreatic carcinoma; conditions: POH-fed hamsters; control animals showed tumor growth; cited from earlier work
[6] = system: HT29 colon cancer cells; assay: Clonogenic survival assay, POH with or without radiation, HT29; format: cell-based, human
Description: as §1

[7] = system: MIAPACA pancreatic cancer cells; assay: Clonogenic survival assay, POH with or without radiation, MIAPACA; format: cell-based, human
Description: as §1

[8] = system: Fas-sensitive Jurkat cell line; assay: Cell death of Jurkat cells incubated with POH-treated T98G; format: cell-based; conditions: T98G treated 0.1 mM–0.5 mM 48 hours, then Jurkat 48 hours
Description: Referring to FIG. 27, subconfluent cells of T98G cells were treated with varying concentrations of perillyl alcohol (0.1 mM–0.5 mM) for 48 hours. At the end of the incubation the media was changed, cells from a Fas-sensitive Jurkat cell line were added to the plate, and the incubation was continued further for 48 hours. At the end of the incubation the target cells (Jurkat) were harvested, washed and the cell viability was assessed.

For `C=C(C)[C@@H]1CC=C(CO)CC1` [POH, Perillyl alcohol], the “% SURVIVAL” value ([1]; 0.1 mM POH 72 h, no radiation) was 0.734 ± 0.038%, the “% SURVIVAL” value ([1]; 0.1 mM POH + 5.5 Gy) was 0.007 ± 0.0009% and the “% SURVIVAL” value ([1]; 0.3 mM POH 72 h, no radiation) was 0.366 ± 0.017%. The “% SURVIVAL” value ([1]; 0.3 mM POH + 5.5 Gy) was 0.003 ± 0.0058%, the “% SURVIVAL” value ([1]; 0.5 mM POH 72 h, no radiation) was 0.244 ± 0.009% and the “% SURVIVAL” value ([1]; 0.5 mM POH + 5.5 Gy) was 0.001 ± 0.00067%. For the same compound, the cell cycle effect ([2]; MO59K) was “G0/G1 block”, the cell cycle effect ([2]; all the cell lines except MO59K) was “block in the G2/M phase” and the “% SURVIVAL” value ([3]; 0.1 mM POH 72 h, no radiation) was 1.066 ± 0.200%. The “% SURVIVAL” value ([3]; 0.1 mM POH + 5.5 Gy) was 0.253 ± 0.004%, the “% SURVIVAL” value ([3]; 0.3 mM POH 72 h, no radiation) was 0.397 ± 0.059% and the “% SURVIVAL” value ([3]; 0.3 mM POH + 5.5 Gy) was 0.046 ± 0.005%. For the same compound, the “% SURVIVAL” value ([3]; 0.5 mM POH 72 h, no radiation) was 0.257 ± 0.010%, the “% SURVIVAL” value ([3]; 0.5 mM POH + 5.5 Gy) was 0.019 ± 0.001% and the “isoprenylation of 21–26 kD proteins” value [4] was “inhibit isoprenylation”. The “antitumor effect in pancreatic carcinoma models” value [5] was “either regression or no growth of the tumors”, the “% SURVIVAL” value ([6]; 0.1 mM POH 72 h, no radiation) was 1.060 ± 0.090% and the “% SURVIVAL” value ([6]; 0.1 mM POH + 5.5 Gy) was 0.050 ± 0.005%. The “% SURVIVAL” value ([6]; 0.3 mM POH 72 h, no radiation) was 0.714 ± 0.030%, the “% SURVIVAL” value ([6]; 0.3 mM POH + 5.5 Gy) was 0.034 ± 0.003% and the “% SURVIVAL” value ([6]; 0.5 mM POH 72 h, no radiation) was 0.400 ± 0.010%. For the same compound, the “% SURVIVAL” value ([6]; 0.5 mM POH + 5.5 Gy) was 0.006 ± 0.002%, the “% SURVIVAL” value ([7]; 0.1 mM POH 72 h, no radiation) was 1.503 ± 0.05% and the “% SURVIVAL” value ([7]; 0.1 mM POH + 5.5 Gy) was 0.154 ± 0.018%. The “% SURVIVAL” value ([7]; 0.3 mM POH 72 h, no radiation) was 0.750 ± 0.05%, the “% SURVIVAL” value ([7]; 0.3 mM POH + 5.5 Gy) was 0.059 ± 0.008% and the “% SURVIVAL” value ([7]; 0.5 mM POH 72 h, no radiation) was 0.450 ± 0.07%. For the same compound, the “% SURVIVAL” value ([7]; 0.5 mM POH + 5.5 Gy) was 0.015 ± 0.0027% and the “function of Fas Ligand on treated T98G towards Jurkat cells” value [8] was “brought about cell death”.
